Source: PMC4091635 (Bioorganic & medicinal chemistry, 2014)

Tested on: transformed PSC (human pancreatic stellate cells)
Assay: AlamarBlue Cell Viability Assay, PSC proliferation
Type: cell-based
Details: mean of at least three independent experiments, NE: No effect

COc1cc(OC)c2c(=O)cc(-c3ccc(O)cc3)oc2c1 [Compound 6, 2-(4-Hydroxy-phenyl)-5,7-dimethoxy-chromen-4-one]
Inhibitory Effect (%) 20 μM: no significant antiproliferative effect
